Laboratory results from the NIST ThermoML archive (doi:10.1021/acs.jced.9b00436).

Tests used:
[1] = an = ratio of the nth substance listed; conditions: 100 kPa, Liquid; for viscosity: Falling or rolling sphere viscometry; for speed of sound: Frequency=5 MHz, Single path-length method; for mass density: Vibrating tube method
[2] = 100 kPa, Liquid, Frequency=5 MHz, Single path-length method

C[N+](C)(C)CCO.[Cl-] [choline chloride] + OCC(O)CO
[1], a2 = 2
Conditions | mass density [kg/m3] | speed of sound [m/s] | viscosity [mPa·s]
293 K | 1194.3 | 1987 | 473
298 K | 1191.7 | 1975 | 364.4
303 K | 1188.5 | 1963 | 246.8
308 K | 1185.5 | 1952 | 193.8
313 K | 1182.7 | 1941 | 133.4
318 K | 1179.3 | 1932 | 110.4
323 K | 1177 | 1923 | 81.6
328 K | 1173.1 | 1910 | 70.2
333 K | 1171.3 | 1900 | 53.8

C[N+](C)(C)CCO.[Cl-] [choline chloride] + OCCO
[1], a2 = 2
Conditions | mass density [kg/m3] | speed of sound [m/s] | viscosity [mPa·s]
293 K | 1117.1 | 1896 | 50
298 K | 1114.5 | 1882 | 40.4
303 K | 1111.4 | 1871 | 33.6
308 K | 1108.6 | 1860 | 27.9
313 K | 1105.7 | 1848 | 23.6
318 K | 1102.6 | 1837 | 19.9
323 K | 1100.1 | 1826 | 17.2
328 K | 1096.7 | 1813 | 14.6
333 K | 1094.7 | 1802 | 12.8

CCCCCCCCCC(=O)O [decanoic acid] + CCCCCCCCCCCCCC[P+](CCCCCC)(CCCCCC)CCCCCC.[Cl-]
[1], a1 = 2
Conditions | mass density [kg/m3] | speed of sound [m/s] | viscosity [mPa·s]
293 K | 898.5 | 1437 | 346.3
298 K | 895.4 | 1418 | 260.5
303 K | 893.2 | 1402 | 197.8
308 K | 888.6 | 1384 | 151.6
313 K | 885.4 | 1366 | 117.9
318 K | 881.9 | 1349 | 93.7
323 K | 879.1 | 1333 | 76
328 K | 877.1 | 1314 | 62.8
333 K | 874.9 | 1303 | 52.8

CCCCCCCCCCCCCCCC [hexadecane]
[2]
Conditions | speed of sound [m/s]
293 K | 1356
298 K | 1340
303 K | 1325
313 K | 1287
318 K | 1268
323 K | 1248
328 K | 1227
333 K | 1210
